# Assay results published in patent publication US11466028B2, “Fused 1,4-oxazepines as BET protein degraders” (THE REGENTS OF THE UNIVERSITY OF MICHIGAN, priority 2016, dated 2022).
# Where two headings read alike, the source gives them in different places.
# Assays:
# MDA-MB-231 [1] = experiment: CellTiter-Glo cell growth inhibition, MDA-MB-231; assay type: cell-based; settings: Homo sapiens, MDA-MB-231, 96 h, 4 days, Table 4
# Procedure: (§1) Cell growth inhibitory activity of representative Compounds of the Disclosure was determined using the CellTiter-Glo® Luminescent Cell Viability Assay. Cells were seeded in 384-well white opaque cell culture plates at a density of 2,000 cells/well with serially diluted compounds and incubated at 37° C. in an atmosphere of 95% air and 5% CO2 for 4 days. Cell viability was determined using the CellTiter-Glo® Luminescent Cell Viability Assay Kit (Promega, Madison, Wis.) according to the manufacture's instruction. Briefly, a volume of CellTiter-Glo® Reagent equal to the volume of cell culture medium was added to each well, and then the plates were incubated at room temperature for 10-20 minutes. The luminescent signal was measured using a Tecan Infinite M1000 multimode microplate reader (Tecan, Morrisville, N.C.). The half maximal inhibitory concentration (IC50) was calculated using the GraphPad Prism 5 software (GraphPad Software, La Jolla, Calif.).
# MDA-MB-436 = experiment: WST-8 cell growth inhibition assay, MDA-MB-436; assay type: cell-based; settings: Homo sapiens, WST-8, Table 6
# Procedure: (§2) Cpd. Nos. 7 and 18 were tested in various triple-negative breast cancer cell lines using the WST-8 cell growth assay.
# RS4;11 = experiment: CellTiter-Glo cell growth inhibition, RS4;11; assay type: cell-based; settings: Homo sapiens
# Procedure: as §1
# (§3) Cpd. Nos. 18 and 19 were tested in various leukemia cell lines using the CellTiter-Glo® Luminescent Cell Viability Assay as described in Example 35.
# MOLM-13 = experiment: CellTiter-Glo cell growth inhibition, MOLM-13; assay type: cell-based; settings: Homo sapiens
# Procedure: as §1, §3
# RS4;11 xenograph tumors = experiment: RS4;11 xenograft model; assay type: in vivo, SCID mice; settings: for tumor regression in RS4;11 xenograph tumors: SCID mice
# Procedure: Cpd. Nos. 7 and 11 were dissolved in 10% PCP [10% PEG400 (Sigma), 3% Cremophor (Sigma), and 87% PBS (Gibco)]. The pH of the drug solutions were checked before use and adjusted with 0.5N NaOH to be between pH 6.5 and 8.0 for IV (intravenous) administration.
# RS4;11 cells were maintained at 37° C., 95% air, 5% carbon dioxide in Improved MEM (Richter's Mod.) supplemented with 10% Fetal Bovine Serum, 100 units/ml of penicillin and 100 units/ml of streptomycin (GIBCO™, Invitrogen Corp.) and passaged twice weekly.
# Tumor cells for xenografts were harvested with Trypsin (0.05%)-EDTA (0.53 mM) (GIBCO™, Invitrogen Corp.), growth medium added and cells placed on ice. Cells were washed once with 1×PBS (GIBCO™, Invitrogen Corp.) and re-suspended in PBS. After washing in PBS, cells were re-suspended in an ice cold mixture of 1:1 PBS and Matrigel (BD Biosciences, Invitrogen Corp.) for a final Matrigel protein concentration of 5 mg/ml. Cells at 5×10^6 cells in 0.1 ml were injected subcutaneously (s.c.) into the flank region of each mouse using a 25 gauge needle. All tumors were inoculated into SCID mice (strain:236) C.B-17 SCID, Charles River.
# The size of tumors growing in the mice was measured in two dimensions using calipers. Tumor volume (mm^3)═(A×B^2)/2 where A and B are the tumor length and width (in mm), respectively. During treatment, tumor volume and body weight were measured three times a week. After the treatment was stopped, tumor volume and body weight was measured at least once a week.
# Tumors were not allowed to exceed 10% of the animals total body weight. If an animal had two or more tumors the total weight of all tumors were not allowed to exceed 10% of the animal's total body weight. At the end of the experimental period or when tumor size approached 10% of the total body weight, the animal was euthanized.
# Before treatment began, tumors were allowed to grow to 100-200 mm^3 in volume, at which point the blood vessel supplies to the tumor should have been well established. Mice with tumors within acceptable size range were randomized into treatment groups of seven mice. Cpd. Nos. 7 and 11 were given i.v. at 10 mg/kg at days 1,3, and 5 per week for two weeks. The Control group received vehicle alone. Cpd. Nos. 16, 18, 22 and 48 were given i.v. at 5 mg/kg at days 1, 3, and 5 per week for two weeks. The Control group received vehicle alone.
# (§4) Representative Compounds of the Disclosure were tested in the RS4;11 and other xenograph models using similar techniques. […] No. 22 in the MDA-MB-231 TNBC model.
# MDA-MB-468 = experiment: WST-8 cell growth inhibition assay, MDA-MB-468; assay type: cell-based; settings: Homo sapiens, WST-8, Table 6
# Procedure: as §2
# HBL100 = experiment: WST-8 cell growth inhibition assay, HBL100; assay type: cell-based; settings: Homo sapiens, HBL-100; WST-8, Table 6
# Procedure: as §2
# MDA-MB-157 = experiment: WST-8 cell growth inhibition assay, MDA-MB-157; assay type: cell-based; settings: Homo sapiens, WST-8, Table 6
# Procedure: as §2
# MDA-MB-231 [2] = experiment: WST-8 cell growth inhibition assay, MDA-MB-231; assay type: cell-based; settings: Homo sapiens, WST-8, Table 6
# Procedure: as §2
# MDA-MB-474 = experiment: WST-8 cell growth inhibition assay, MDA-MB-474; assay type: cell-based; settings: WST-8, Table 6
# Procedure: as §2
# MDA-MB-453 = experiment: WST-8 cell growth inhibition assay, MDA-MB-453; assay type: cell-based; settings: Homo sapiens, WST-8, Table 6
# Procedure: as §2
# BRD4 [3] = biological target: T1, BRD4 (Homo sapiens, UniProt O60885); experiment: Western blot, degradation of BRD4 in RS4;11 cells; assay type: cell-based; settings: 2.5 h, as compared to Compound A, FIG. 1
# T1 construct: Collected cells were lysed in lysis buffer; endogenous in cells; host or cells: RS4;11 and MOLM-13 leukemia cells
# Procedure: (§5) Cells were treated with compounds at the indicated concentrations for 2.5 h and 3 h, respectively, for RS4;11 (see FIG. 1) and MOLM-13 (see FIG. 2) cells. Compound A is ((S)-3-benzyl-6,9-dimethyl-2-((1-methyl-1H-pyrazol-4-yl)ethynyl)-4H,6H-thieno[2,3-e][1,2,4]triazolo[3,4-c][1,4]oxazepine). See Cpd. No. 85 of U.S. Appl. No. 62/295,271.
# (§6) Collected cells were lysed in lysis buffer [1% CHAPS, 150 mM NaCl, 20 mM Tris-HCl, 1 mM. EDTA, 1 mM EGTA, and COMPLETE proteinase inhibitor (Roche)] for 30 minutes on ice. Protein concentrations were determined using the Bio-Rad Protein Assay Dye reagent. Whole tumor lysates (20 μg) were separated on a 4-20% Novex gels (Invitrogen). The separated proteins were transferred to a PVDF membrane (BIO-RAD) and the PVDF membrane was then blotted with 5% Blotting-Grade Blocker (BIO-RAD) for 1 hour at room temperature. The primary antibodies used were BRD4 rabbit polyclonal antibody [Bethyl Laboratories, Inc, cat #A301] and BRD2 antibody.
# (§7) The BIO-RAD Clarity Western ECL Substrates (BIO-RAD) and HyBlot CL film (Denville) were used for signal development and detection using a SRX-101A tabletop processor (Konica Minolta).
# HL60 = experiment: CellTiter-Glo cell viability, HL60 leukemia cell line; assay type: cell-based; settings: Homo sapiens, HL-60, Table 5
# Procedure: as §1, §3
# MV4; 11 = experiment: CellTiter-Glo cell viability, MV4;11 leukemia cell line; assay type: cell-based; settings: Homo sapiens, Table 5
# Procedure: as §1, §3
# AML3 = experiment: CellTiter-Glo cell viability, AML3 leukemia cell line; assay type: cell-based; settings: Table 5
# Procedure: as §1, §3
# BRD2 [4] = biological target: T2, BRD2 (Homo sapiens, UniProt P25440); experiment: Western blot, degradation of BRD2 in MOLM-13 cells; assay type: cell-based; settings: 3 h, as compared to Compound A, FIG. 2
# T2 construct: endogenous in cells; host or cells: RS4;11 and MOLM-13 leukemia cells
# T2 sequence (P25440 whole entry): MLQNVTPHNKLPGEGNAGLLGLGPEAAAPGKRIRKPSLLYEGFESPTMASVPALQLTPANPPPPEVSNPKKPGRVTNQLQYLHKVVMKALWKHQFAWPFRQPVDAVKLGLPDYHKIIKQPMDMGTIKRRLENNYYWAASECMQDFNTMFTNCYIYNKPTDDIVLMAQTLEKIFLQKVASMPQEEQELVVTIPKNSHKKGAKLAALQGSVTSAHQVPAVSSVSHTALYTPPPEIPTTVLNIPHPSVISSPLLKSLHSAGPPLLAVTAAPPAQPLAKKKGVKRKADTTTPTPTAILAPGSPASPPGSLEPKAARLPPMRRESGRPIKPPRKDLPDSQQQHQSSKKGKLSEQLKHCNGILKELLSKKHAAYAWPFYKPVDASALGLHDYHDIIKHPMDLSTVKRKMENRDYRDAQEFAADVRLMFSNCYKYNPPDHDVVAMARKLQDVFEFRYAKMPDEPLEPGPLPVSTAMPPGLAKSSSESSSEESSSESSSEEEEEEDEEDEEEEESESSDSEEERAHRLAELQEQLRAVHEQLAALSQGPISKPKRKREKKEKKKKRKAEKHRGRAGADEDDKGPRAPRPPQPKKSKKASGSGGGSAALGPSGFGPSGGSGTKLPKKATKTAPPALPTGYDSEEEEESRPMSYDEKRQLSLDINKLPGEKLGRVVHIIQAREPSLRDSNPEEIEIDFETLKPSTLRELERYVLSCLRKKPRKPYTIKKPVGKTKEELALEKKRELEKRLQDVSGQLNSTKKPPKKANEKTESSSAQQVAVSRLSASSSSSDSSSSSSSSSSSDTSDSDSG
# Procedure: as §5, §6, §7
# MOLM16 = experiment: CellTiter-Glo cell viability, MOLM16 leukemia cell line; assay type: cell-based; settings: Table 5
# Procedure: as §1, §3
# AML5 = experiment: CellTiter-Glo cell viability, AML5 leukemia cell line; assay type: cell-based; settings: Table 5
# Procedure: as §1, §3
# MonoMac6 = experiment: CellTiter-Glo cell viability, MonoMac6 leukemia cell line; assay type: cell-based; settings: Homo sapiens, MONO-MAC-6, Table 5
# Procedure: as §1, §3
# BRD2 [5] = biological target: T2, BRD2; experiment: Western blot, degradation of BRD2 in RS4;11 cells; assay type: cell-based; settings: 2.5 h, as compared to Compound A, FIG. 1
# Procedure: as §5, §6, §7
# BRD4 [6] = biological target: T1, BRD4; experiment: Western blot, degradation of BRD4 in MOLM-13 cells; assay type: cell-based; settings: 3 h, as compared to Compound A, FIG. 2
# Procedure: as §5, §6, §7
# KG1 = experiment: CellTiter-Glo cell viability, KG1 leukemia cell line; assay type: cell-based; settings: Homo sapiens, KG-1, Table 5
# Procedure: as §1, §3
# MDA-MB-231 TNBC = MDA-MB-231 TNBC model; assay type: in vivo; settings: FIG. 12
# Procedure: as §4
# MV4;11 xenograph = MV4;11 xenograph model; assay type: in vivo
# Procedure: as §4
# WHIM24 breast cancer PDX = WHIM24 breast cancer PDX model; assay type: in vivo; settings: FIG. 10
# Procedure: as §4
# MDA-MB-468 TNBC = MDA-MB-468 TNBC model; assay type: in vivo; settings: FIG. 11
# Procedure: as §4
# [7] = RS4-11, 96 h, 4 days, Table 4, read-out: RS-4, 11 IC50
# [8] = MOLM-13, 96 h, 4 days, Table 4, read-out: MOLM-13 IC50
compound,measurement,setting,value
"Cc1nnc2n1-c1sc(C#Cc3cnn(CCCCNc4cccc5c4C(=O)N(C4CCC(=O)NC4=O)C5=O)c3)c(Cc3ccccc3)c1CO[C@H]2C (stereo partly drawn) [Cpd. No. 7, 4-((4-(4-(((S)-3-benzyl-6,9-dimethyl-4H,6H-thieno[2,3-e][1,2,4]triazolo[3,4-c][1,4]oxazepin-2-yl)ethynyl)-1H-pyrazol-1-yl)butyl)amino)-2-(2,6-dioxopiperidin-3-yl)isoindoline-1,3-dione]",IC50,MDA-MB-231 [1],0.8 nM
same,IC50,MDA-MB-436,2.24 ± 0.3 nM
same,IC50,RS4;11; [7],0.03 nM
same,IC50,MOLM-13; [8],0.7 nM
same,tumor regression in RS4;11 xenograph tumors,"RS4;11 xenograph tumors; i.v. 10 mg/kg at days 1, 3, 5 per week for two weeks, FIG. 3",induce tumor regression
same,IC50,MDA-MB-468,2.46 ± 0.07 nM
same,IC50,HBL100,1.7 ± 0.15 nM
same,IC50,MDA-MB-157,0.29 ± 0.02 nM
same,IC50,MDA-MB-231 [2],1.2 ± 0.13 nM
same,IC50,MDA-MB-474,1.09 ± 0.06 nM
same,IC50,MDA-MB-453,1.02 ± 0.03 nM
"Cc1nnc2n1-c1sc(C#Cc3cnn(CCCCCc4cccc5c4CN(C4CCC(=O)NC4=O)C5=O)c3)c(Cc3ccccc3)c1CO[C@H]2C (stereo partly drawn) [Cpd. No. 19, 3-(4-(5-(4-(((S)-3-benzyl-6,9-dimethyl-4H,6H-thieno[2,3-e][1,2,4]triazolo[3,4-c][1,4]oxazepin-2-yl)ethynyl)-1H-pyrazol-1-yl)pentyl)-1-oxoisoindolin-2-yl) piperidine-2,6-dione]",IC50,MDA-MB-231 [1],12 nM
same,IC50,RS4;11; [7],0.06 nM
same,IC50,"RS4;11; RS4-11, Table 5, read-out: IC50 (nM) RS4, 11",0.8 ± 0.1 nM
same,IC50,MOLM-13; [8],2.7 nM
same,IC50,"MOLM-13; MOLM-13, Table 5, read-out: IC50 (nM) MOLM13",7.6 nM
same,degradation of BRD4 protein (Western blot),BRD4 [3],induce degradation
same,IC50,HL60,0.97 ± 0.08 nM
same,IC50,MV4; 11,0.46 ± 0.1 nM
same,IC50,AML3,2.44 ± 0.22 nM
same,degradation of BRD2 protein (Western blot),BRD2 [4],induce degradation
same,IC50,MOLM16,0.15 ± 0.06 nM
same,IC50,AML5,0.84 ± 0.14 nM
same,IC50,MonoMac6,1.8 ± 0.3 nM
same,degradation of BRD2 protein (Western blot),BRD2 [5],induce degradation
same,degradation of BRD4 protein (Western blot),BRD4 [6],induce degradation
same,IC50,KG1,3.99 ± 0.18 nM
"Cc1nnc2n1-c1sc(C#Cc3cnn(CCCC#Cc4cccc5c4CN(C4CCC(=O)NC4=O)C5=O)c3)c(Cc3ccccc3)c1COC2 (centres unmarked) [Cpd. No. 22, 3-(4-(5-(4-((3-benzyl-9-methyl-4H,6H-thieno[2,3-e][1,2,4]triazolo[3,4-c][1,4]oxazepin-2-yl)ethynyl)-1H-pyrazol-1-yl)pent-1-yn-1-yl)-1-oxoisoindolin-2-yl)piperidine-2,6-dione]",IC50,MDA-MB-231 [1],< 0.015 nM
same,IC50,RS4;11; [7],0.11 nM
same,IC50,MOLM-13; [8],0.85 nM
same,tumor regression in the MDA-MB-231 TNBC model,MDA-MB-231 TNBC,induces tumor regression
same,tumor regression in RS4;11 xenograph tumors,"RS4;11 xenograph tumors; i.v. 5 mg/kg at days 1, 3, 5 per week for two weeks, FIG. 4",induce tumor regression
same,tumor regression in the RS4;11 xenograph model,"RS4;11 xenograph tumors; every other day dosing schedule, FIG. 6",induces tumor regression
same,tumor regression in the RS4;11 xenograph model,"RS4;11 xenograph tumors; single dose or weekly dosing schedule, FIG. 7",induces tumor regression
same,tumor regression in the MV4;11 xenograph model,MV4;11 xenograph; FIG. 8,induces tumor regression
same,tumor regression in the MV4;11 xenograph model,MV4;11 xenograph; FIG. 9,induce tumor regression
same,tumor regression in the WHIM24 breast cancer PDX model,WHIM24 breast cancer PDX,induces tumor regression
same,tumor regression in the MDA-MB-468 TNBC model,MDA-MB-468 TNBC,induces tumor regression
